In patent US20100168102A9, “Amide Derivatives as Kinase Inhibitors” (Devgen NV, priority 2005, published 2010):

Tests used:
PKC epsilon = biological target: T1, PKC epsilon (Homo sapiens, UniProt Q02156); experiment: Biochemical assay for PKC epsilon (fluorescence polarization, Protein Kinase C Assay Kit, Red); conditions: Table 2, compounds of Formula XIII; read-out: IC50 μM PKCε
T1 construct: purchased Invitrogen P2282
T1 sequence (Q02156 1-737): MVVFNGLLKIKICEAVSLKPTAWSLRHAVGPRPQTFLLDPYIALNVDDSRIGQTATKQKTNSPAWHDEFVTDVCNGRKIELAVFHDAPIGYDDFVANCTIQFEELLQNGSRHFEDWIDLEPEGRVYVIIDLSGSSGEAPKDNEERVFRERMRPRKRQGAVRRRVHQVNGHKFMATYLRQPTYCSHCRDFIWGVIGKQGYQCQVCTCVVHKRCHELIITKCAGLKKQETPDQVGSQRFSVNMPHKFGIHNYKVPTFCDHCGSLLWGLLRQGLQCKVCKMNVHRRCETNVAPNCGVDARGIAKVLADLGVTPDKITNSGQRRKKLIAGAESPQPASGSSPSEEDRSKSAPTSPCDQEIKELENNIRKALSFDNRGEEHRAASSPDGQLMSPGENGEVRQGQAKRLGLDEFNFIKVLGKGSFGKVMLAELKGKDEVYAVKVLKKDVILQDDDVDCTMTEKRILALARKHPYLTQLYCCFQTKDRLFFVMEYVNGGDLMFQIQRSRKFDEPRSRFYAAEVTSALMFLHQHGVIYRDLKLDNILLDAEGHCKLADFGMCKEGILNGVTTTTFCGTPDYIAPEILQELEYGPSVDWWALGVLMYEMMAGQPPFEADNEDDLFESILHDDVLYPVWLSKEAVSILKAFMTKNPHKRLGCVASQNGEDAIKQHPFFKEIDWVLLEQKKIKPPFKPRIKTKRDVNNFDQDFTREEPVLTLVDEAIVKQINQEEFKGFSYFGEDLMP
Summary of the method: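 Read-out was fluorescence-polarization competition between phosphorylated substrate and a rhodamine PKC tracer for an anti-phosphoserine antibody, added with EDTA stop after an 80 min room-temperature kinase reaction with ATP and protein substrate (Mg2+/Ca2+ buffer). Enzyme (10 ng/ml final) was preincubated with compound for 30 min.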

human ROCKα/ROCKII mix = biological target: T2, human ROCKα/ROCKII mix (Homo sapiens, UniProt O75116); experiment: Biochemical assay for ROCK (fluorescence polarization, ROCK IMAP Kit); conditions: Table 2, compounds of Formula XIII
T2 construct: purchased Upstate Biotechnology 14-451
T2 sequence (O75116 11-552 limits assumed): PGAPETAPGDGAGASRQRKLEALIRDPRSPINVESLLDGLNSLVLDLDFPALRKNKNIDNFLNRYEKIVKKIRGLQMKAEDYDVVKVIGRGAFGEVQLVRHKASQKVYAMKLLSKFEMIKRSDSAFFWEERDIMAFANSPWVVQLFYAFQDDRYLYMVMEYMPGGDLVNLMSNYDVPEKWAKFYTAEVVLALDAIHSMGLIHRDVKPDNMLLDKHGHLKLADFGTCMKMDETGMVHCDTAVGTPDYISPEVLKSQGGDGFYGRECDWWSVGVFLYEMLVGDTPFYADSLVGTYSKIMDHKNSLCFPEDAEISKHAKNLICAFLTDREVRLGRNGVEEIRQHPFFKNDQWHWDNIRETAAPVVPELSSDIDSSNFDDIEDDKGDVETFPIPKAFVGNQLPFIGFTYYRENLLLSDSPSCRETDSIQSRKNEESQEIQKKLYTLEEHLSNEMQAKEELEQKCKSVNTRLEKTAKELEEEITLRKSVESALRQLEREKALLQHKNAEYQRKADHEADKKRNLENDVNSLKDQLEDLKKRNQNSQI

IC50 (PKC epsilon) [µM]	IC50 (human ROCKα/ROCKII mix) [µM]	Structure (SMILES)
5 to 50	0.5 to 5	COCC(=O)NCC(N)c1ccc(C(=O)Nc2ccncc2)cc1 (stereo not shown) [Compound 57, 4-[1-Amino-2-(2-methoxy-acetylamino)-ethyl]-N-pyridin-4-yl-benzamide]
5 to 50	0.5 to 5	COCCC(=O)NCC(N)c1ccc(C(=O)Nc2ccncc2)cc1 (stereo not shown) [Compound 58, 4-[1-Amino-2-(3-methoxy-propionylamino)-ethyl]-N-pyridin-4-yl-benzamide]
0.5 to 5	0.5 to 5	CC(C)=NOC(C)C(=O)NCC(N)c1ccc(C(=O)Nc2ccncc2)cc1 (stereo not shown) [Compound 59, 4-[1-Amino-2-(2-isopropylideneaminooxy-propionylamino)-ethyl]-N-pyridin-4-yl-benzamide]
0.5 to 5	0.05 to 0.5	CC(=NOCC(=O)NCC(N)c1ccc(C(=O)Nc2ccncc2)cc1)c1ccccc1 (stereo not shown) [Compound 60, 4-{1-Amino-2-[2-(1-phenyl-ethylideneaminooxy)-acetylamino]-ethyl}-N-pyridin-4-yl-benzamide]
5 to 50	0.5 to 5	Cc1ccsc1C=NOCC(=O)NCC(N)c1ccc(C(=O)Nc2ccncc2)cc1 (stereo not shown) [Compound 61, 4-{1-Amino-2-[2-(3-methyl-thiophen-2-ylmethyleneaminooxy)-acetylamino]-ethyl}-N-pyridin-4-yl-benzamide]
5 to 50	0.5 to 5	CCOCC(=O)NCC(N)c1ccc(C(=O)Nc2ccncc2)cc1 (stereo not shown) [Compound 62, 4-[1-amino-2-(2-ethoxy-acetylamino)-ethyl]-N-pyridin-4-yl-benzamide]
0.5 to 5	0.05 to 0.5	CCSCC(=O)NCC(N)c1ccc(C(=O)Nc2ccncc2)cc1 (stereo not shown) [Compound 63, 4-[1-amino-2-(2-ethylsulfanyl-acetylamino)-ethyl]-N-pyridin-4-yl-benzamide]
5 to 50	0.5 to 5	NC(CNC(=O)CSc1ncccn1)c1ccc(C(=O)Nc2ccncc2)cc1 (stereo not shown) [Compound 64, 4-{1-amino-2-[2-(pyrimidin-2-ylsulfanyl)-acetylamino]-ethyl}-N-pyridin-4-yl-benzamide]
0.5 to 5	0.5 to 5	NC(CNC(=O)C1CCOC1)c1ccc(C(=O)Nc2ccncc2)cc1 (stereo not shown) [Compound 65, Tetrahydro-furan-3-carboxylic acid {2-amino-2-[4-(pyridin-4-ylcarbamoyl)-phenyl]-ethyl}-amide]
5 to 50	0.5 to 5	NC(CNC(=O)C1CCCO1)c1ccc(C(=O)Nc2ccncc2)cc1 (stereo not shown) [Compound 66, Tetrahydro-furan-2-carboxylic acid {2-amino-2-[4-(pyridin-4-ylcarbamoyl)-phenyl]-ethyl}-amide]
5 to 50	0.5 to 5	NC(CNC(=O)[C@@H]1CCC(=O)N1)c1ccc(C(=O)Nc2ccncc2)cc1 (stereo partly drawn) [Compound 67, 5-Oxo-pyrrolidine-2-(S)-carboxylic acid {2-amino-2-[4-(pyridin-4-ylcarbamoyl)-phenyl]-ethyl}-amide]
5 to 50	0.05 to 0.5	NC(CNC(=O)[C@H]1CCC(=O)N1)c1ccc(C(=O)Nc2ccncc2)cc1 (stereo partly drawn) [Compound 68, 5-Oxo-pyrrolidine-2-(R)-carboxylic acid {2-amino-2-[4-(pyridin-4-ylcarbamoyl)-phenyl]-ethyl}-amide]
5 to 50	0.05 to 0.5	NC(CNC(=O)c1ccc2ccccc2c1)c1ccc(C(=O)Nc2ccncc2)cc1 (stereo not shown) [Compound 70]
0.5 to 5	0.5 to 5	NC(CNC(=O)c1cccc2ccccc12)c1ccc(C(=O)Nc2ccncc2)cc1 (stereo not shown) [Compound 71]

Second part, the molecule before the results:

Structure (SMILES)	IC50 (PKC epsilon) [µM]	IC50 (human ROCKα/ROCKII mix) [µM]
CC1CC1C(=O)NCC(N)c1ccc(C(=O)Nc2ccncc2)cc1 (stereo not shown) [Compound 40, 4-{1-Amino-2-[(2-methyl-cyclopropanecarbonyl)-amino]-ethyl}-N-pyridin-4-yl-benzamide]	0.5 to 5	0.5 to 5
NC(CNC(=O)C1CCC1)c1ccc(C(=O)Nc2ccncc2)cc1 (stereo not shown) [Compound 41, 4-[1-Amino-2-(cyclobutanecarbonyl-amino)-ethyl]-N-pyridin-4-yl-benzamide]	0.5 to 5	0.5 to 5
NC(CNC(=O)C1CCCC1)c1ccc(C(=O)Nc2ccncc2)cc1 (stereo not shown) [Compound 42, 4-[1-Amino-2-(cyclopentanecarbonyl-amino)-ethyl]-N-pyridin-4-yl-benzamide]	0.5 to 5	0.5 to 5
NC(CNC(=O)C1CCCCC1)c1ccc(C(=O)Nc2ccncc2)cc1 (stereo not shown) [Compound 43, 4-[1-Amino-2-(cyclohexanecarbonyl-amino)-ethyl]-N-pyridin-4-yl-benzamide]	5 to 50	0.5 to 5
NC(CNC(=O)CC1CC1)c1ccc(C(=O)Nc2ccncc2)cc1 (stereo not shown) [Compound 46, 4-[1-Amino-2-(2-cycopropyl-acetylamino)-ethyl]-N-pyridin-4-yl-benzamide]	0.5 to 5	0.5 to 5
NC(CNC(=O)CC1CCCC1)c1ccc(C(=O)Nc2ccncc2)cc1 (stereo not shown) [Compound 47, 4-[1-Amino-2-(2-cyclopentyl-acetylamino)-ethyl]-N-pyridin-4-yl-benzamide]	0.5 to 5	0.5 to 5
NC(CNC(=O)CC1C=CCC1)c1ccc(C(=O)Nc2ccncc2)cc1 (stereo not shown) [Compound 48, 4-[1-Amino-2-(2-cyclopent-2-enyl-acetylamino)-ethyl]-N-pyridin-4-yl-benzamide]	0.5 to 5	0.05 to 0.5
NC(CNC(=O)CC1Cc2ccccc2C1)c1ccc(C(=O)Nc2ccncc2)cc1 (stereo not shown) [Compound 49, 4-[1-Amino-2-(2-indan-2-yl-acetylamino)-ethyl]-N-pyridin-4-yl-benzamide]	0.5 to 5	0.05 to 0.5
NC(CNC(=O)CC1CCCCC1)c1ccc(C(=O)Nc2ccncc2)cc1 (stereo not shown) [Compound 50, 4-[1-Amino-2-(2-cyclohexyl-acetylamino)-ethyl]-N-pyridin-4-yl-benzamide]	0.5 to 5	0.5 to 5
NC(CNC(=O)CCC1CCCC1)c1ccc(C(=O)Nc2ccncc2)cc1 (stereo not shown) [Compound 51, 4-[1-Amino-2-(3-cyclopentyl-propionylamino)-ethyl]-N-pyridin-4-yl-benzamide]	0.5 to 5	0.05 to 0.5
NC(CNC(=O)CCC1CCCCC1)c1ccc(C(=O)Nc2ccncc2)cc1 (stereo not shown) [Compound 52, 4-[1-Amino-2-(3-cyclohexyl-propionylamino)-ethyl]-N-pyridin-4-yl-benzamide]	0.5 to 5	0.05 to 0.5
CN(C)CCCC(=O)NCC(N)c1ccc(C(=O)Nc2ccncc2)cc1 (stereo not shown) [Compound 53, 4-[1-Amino-2-(4-dimethylamino-butyrylamino)-ethyl]-N-pyridin-4-yl-benzamide]	5 to 50	0.5 to 5
N#CCC(=O)NCC(N)c1ccc(C(=O)Nc2ccncc2)cc1 (stereo not shown) [Compound 54, 4-[1-Amino-2-(2-cyano-acetylamino)-ethyl]-N-pyridin-4-yl-benzamide]	0.5 to 5	0.05 to 0.5
NC(CNC(=O)CNC(=O)c1ccccc1)c1ccc(C(=O)Nc2ccncc2)cc1 (stereo not shown) [Compound 55, 4-[1-Amino-2-(2-benzoylamino-acetylamino)-ethyl]-N-pyridin-4-yl-benzamide]	5 to 50	0.05 to 0.5
NC(CNC(=O)CNC(=O)c1ccco1)c1ccc(C(=O)Nc2ccncc2)cc1 (stereo not shown) [Compound 56, Furan-2-carboxylic acid ({2-amino-2-[4-(pyridin-4-ylcarbamoyl)-phenyl]-ethylcarbamoyl}-methyl)-amide]	5 to 50	0.05 to 0.5
